# From ChEMBL document CHEMBL5331122, “Structure-Activity Relationship Study of Antimicrobial Peptide PE2 Delivered Novel Linear Derivatives with Potential of Eradicating Biofilms and Low Incidence of Drug Resistance” (J Med Chem, 2023)
# Active and inactive are the calls of the source. The calls are words filed in the database; no cut-off is given here.
# Legend:
# Staphylococcus aureus [1] = assay: Antibacterial activity against Staphylococcus aureus ATCC 25923 assessed as fold increase in MIC in presence of FeCl3; type: functional
# Pseudomonas aeruginosa = assay: Antibacterial activity against Pseudomonas aeruginosa ATCC 27853 assessed as bacterial growth inhibition incubated for 18 hrs by broth microdilution method; type: functional
# Staphylococcus aureus [2] = assay: Inhibition of biofilm formation in Staphylococcus aureus ATCC 25923 assessed as inhibition of biofilm formation at 1/4 times MIC incubated for 24 hrs by crystal violet staining based analysis; type: functional, organism-based
# Cell membrane [3] = assay: Induction of outer membrane permeabilization in Escherichia coli ATCC 25922 assessed as increase in fluorescence intensity at 4 times MIC measured for 12 hrs by NPN uptake assay; type: subcellular
# Staphylococcus aureus [4] = assay: Antibacterial activity against Staphylococcus aureus ATCC 25923 assessed as fold increase in MIC in presence of MgCl2; type: functional
# Staphylococcus aureus [5] = assay: Induction of membrane morphological changes in Staphylococcus aureus ATCC 25923 assessed as appearance of broken bacterial cells at 4 times MIC measured at 0.5 to 2 hrs by SEM analysis; type: functional, organism-based; conditions: time 0.5-2 hrs
# Cell membrane [6] = assay: Induction of cell membrane damage in Staphylococcus aureus ATCC 25923 at 2 times MIC measured at 30 mins by propidium iodide staining based flow cytometer assay; type: subcellular
# Staphylococcus aureus [7] = assay: Antibacterial activity against Staphylococcus aureus ATCC 25923 in presence of 10% mouse serum measured for 6 hrs; type: functional, organism-based
# Staphylococcus aureus [8] = assay: Antibacterial activity against Staphylococcus aureus ATCC 25923 assessed as bacterial growth inhibition incubated for 18 hrs by broth microdilution method; type: functional
# Escherichia coli [9] = assay: Bactericidal activity against Escherichia coli ATCC 25922 assessed as inhibition of bacterial growth at 0.5 to 2 times MIC by time-kill assay; type: functional, organism-based; conditions: time <= 360.0 min, TDE = time-dependent effect
# Staphylococcus aureus [10] = assay: Induction of membrane morphological changes in Staphylococcus aureus ATCC 25923 assessed as appearance of blistered bacterial cells at 4 times MIC measured at 0.5 to 2 hrs by SEM analysis; type: functional, organism-based; conditions: time 0.5-2 hrs
# Escherichia coli [11] = assay: Inhibition of biofilm formation in Escherichia coli ATCC 25922 assessed as inhibition of biofilm formation at 1/2 times MIC incubated for 24 hrs by crystal violet staining based analysis; type: functional, organism-based
# Bacillus subtilis = assay: Antibacterial activity against Bacillus subtilis ATCC 23857 assessed as bacterial growth inhibition incubated for 18 hrs by broth microdilution method; type: functional
# Escherichia coli [12] = assay: Inhibition of biofilm formation in Escherichia coli ATCC 25922 assessed as inhibition of biofilm formation incubated for 24 hrs by crystal violet staining based analysis; type: functional, organism-based
# Escherichia coli [13] = assay: Antibacterial activity against Escherichia coli ATCC 25922 assessed as bacterial growth inhibition incubated for 18 hrs by broth microdilution method; type: functional
# Staphylococcus aureus [14] = assay: Antibiofilm activity against Staphylococcus aureus ATCC 25923 assessed as biofilm eradication at 4 times MIC incubated for 24 hrs; type: functional, organism-based
# Cell membrane [15] = assay: Induction of inner membrane permeabilization in Escherichia coli ML-35 ATCC 43837 assessed as increase in fluorescence intensity at 1 to 4 times MIC incubated upto 150 mins by ONPG staining based analysis; type: subcellular
# Escherichia coli [16] = assay: Antibiofilm activity against Escherichia coli ATCC 25922 assessed as biofilm eradication at 4 times MIC incubated for 24 hrs; type: functional, organism-based
# Escherichia coli [17] = assay: Antimicrobial activity against Escherichia coli ATCC 25922 assessed as reduction in microbial growth measured for 18 hrs in presence of 512 microg/ml LPS; type: functional, organism-based
# Escherichia coli [18] = assay: Inhibition of biofilm formation in Escherichia coli ATCC 25922 assessed as inhibition of biofilm formation at 1 to 2 times MIC incubated for 24 hrs by crystal violet staining based analysis; type: functional, organism-based
# Escherichia coli [19] = assay: Antimicrobial activity against Escherichia coli ATCC 25922 assessed as reduction in survival bacterial growth in presence of trypsin measured after 6 hrs; type: functional, organism-based
# Staphylococcus aureus [20] = assay: Antibacterial activity against Staphylococcus aureus ATCC 25923 assessed as fold increase in MIC in presence of NaCl; type: functional
# Escherichia coli [21] = assay: Antibiofilm activity against Escherichia coli ATCC 25922 assessed as biofilm eradication at 2 times MIC incubated for 24 hrs; type: functional, organism-based
# Staphylococcus aureus [22] = assay: Inhibition of biofilm formation in Staphylococcus aureus ATCC 25923 assessed as inhibition of biofilm formation at 2 times MIC incubated for 24 hrs by crystal violet staining based analysis; type: functional, organism-based
# Escherichia coli [23] = assay: Induction of drug resistance against Escherichia coli ATCC 25922 assessed as fold increase in MIC measured upto 15 passages by sequential passaging method; type: functional
# Escherichia coli [24] = assay: Inhibition of biofilm formation in Escherichia coli ATCC 25922 assessed as inhibition of biofilm formation at 1/4 times MIC incubated for 24 hrs by crystal violet staining based analysis; type: functional, organism-based
# Staphylococcus aureus [25] = assay: Bactericidal activity against Staphylococcus aureus ATCC 25923 assessed as inhibition of bacterial growth at 1 times MIC measured upto 360 mins by time-kill assay; type: functional, organism-based
# Staphylococcus aureus [26] = assay: Antibacterial activity against Staphylococcus aureus ATCC 25923 assessed as fold increase in MIC in presence of ZnCl2; type: functional
# Staphylococcus aureus [27] = assay: Bactericidal activity against Staphylococcus aureus ATCC 25923 assessed as inhibition of bacterial growth incubated upto 360 mins by time-kill assay; type: functional, organism-based
# Staphylococcus aureus [28] = assay: Induction of membrane morphological changes in Staphylococcus aureus ATCC 25923 at 4 times MIC measured at 0.5 to 2 hrs by SEM analysis; type: functional, organism-based; conditions: time 0.5-2 hrs
# Staphylococcus aureus [29] = assay: Bactericidal activity against Staphylococcus aureus ATCC 25923 assessed as inhibition of bacterial growth at 0.5 to 2 times MIC by time-kill assay; type: functional, organism-based; conditions: time <= 360.0 min, TDE = time-dependent effect
# Escherichia coli [30] = assay: Bactericidal activity against Escherichia coli ATCC 25922 assessed as inhibition of bacterial growth at 2 times MIC measured upto 360 mins by time-kill assay; type: functional, organism-based
# Escherichia coli [31] = assay: Bactericidal activity against Escherichia coli ATCC 25922 assessed as inhibition of bacterial growth at 1/2 times MIC measured at 180 mins by time-kill assay; type: functional, organism-based
# Escherichia coli [32] = assay: Antibacterial activity against Escherichia coli ATCC 25922 assessed as fold increase in MIC in presence of MgCl2; type: functional
# Escherichia coli [33] = assay: Antibacterial activity against Escherichia coli ATCC 25922 assessed as fold increase in MIC in presence of ZnCl2; type: functional
# Cell membrane [34] = assay: Induction of cell membrane damage in Escherichia coli ATCC 25922 at 2 times MIC after 0.5 to 2 hrs by propidium iodide staining based flow cytometer assay; type: subcellular; conditions: time 0.5-2 hrs
# Escherichia coli [35] = assay: Antibacterial activity against Escherichia coli ATCC 25922 in presence of 10% mouse serum measured for 6 hrs; type: functional, organism-based
# Escherichia coli [36] = assay: Antibacterial activity against Escherichia coli ATCC 25922 assessed as fold increase in MIC in presence of NaCl; type: functional
# Enterococcus faecalis = assay: Antibacterial activity against Enterococcus faecalis ATCC 29212 assessed as bacterial growth inhibition incubated for 18 hrs by broth microdilution method; type: functional
# Cell membrane [37] = assay: Induction of cell membrane damage in Staphylococcus aureus ATCC 25923 at 2 times MIC after 0.5 to 2 hrs by propidium iodide staining based flow cytometer assay; type: subcellular; conditions: time 0.5-2 hrs
# Cell membrane [38] = assay: Induction of outer membrane permeabilization in Escherichia coli ATCC 25922 assessed as increase in fluorescence intensity at 1 times MIC measured for 12 hrs by NPN uptake assay; type: subcellular
compound,measurement,setting,value
CCCCCCC(=O)N[C@@H](CCN)C(=O)N[C@H](C(=O)N[C@@H](CCN)C(=O)N[C@H](Cc1ccccc1)C(=O)N[C@@H](CC(C)C)C(=O)N[C@@H](CCN)C(=O)N[C@@H](C(=O)N[C@@H](CC(C)C)C(=O)N[C@@H](Cc1ccc(O)cc1)C(N)=O)C(C)C)[C@@H](C)CC,fold change (FC),Staphylococcus aureus [1],<=2
same,MIC,Pseudomonas aeruginosa,4 µg/mL
same,inhibition,Staphylococcus aureus [2],Active
same,Activity,Cell membrane [3],Active
same,fold change (FC),Staphylococcus aureus [4],<=2
same,Activity,Staphylococcus aureus [5],Active
same,Activity,Cell membrane [6],inactive
same,Activity,Staphylococcus aureus [7],Active
same,MIC,Staphylococcus aureus [8],8 µg/mL
same,Activity,Escherichia coli [9],Tde
same,Activity,Staphylococcus aureus [10],Active
same,inhibition,Escherichia coli [11],Active
same,MIC,Bacillus subtilis,2 µg/mL
same,inhibition,Escherichia coli [12],Dose-Dependent Effect
same,MIC,Escherichia coli [13],8 µg/mL
same,Activity,Staphylococcus aureus [14],Active
same,Activity,Cell membrane [15],Active
same,Activity,Escherichia coli [16],Active
same,Activity,Escherichia coli [17],inactive
same,inhibition,Escherichia coli [18],Active
same,Activity,Escherichia coli [19],Active
same,fold change (FC),Staphylococcus aureus [20],<=2
same,Activity,Escherichia coli [21],Active
same,inhibition,Staphylococcus aureus [22],Active
same,fold change (FC),Escherichia coli [23],64
same,inhibition,Escherichia coli [24],Active
same,Activity,Staphylococcus aureus [25],inactive
same,fold change (FC),Staphylococcus aureus [26],<=2
same,Activity,Staphylococcus aureus [27],Dose-Dependent Effect
same,Activity,Staphylococcus aureus [28],Active
same,Activity,Staphylococcus aureus [29],Tde
same,Activity,Escherichia coli [30],Active
same,Activity,Escherichia coli [31],Active
same,fold change (FC),Escherichia coli [32],<=2
same,fold change (FC),Escherichia coli [33],<=2
same,Activity,Cell membrane [34],Active
same,Activity,Escherichia coli [35],Active
same,fold change (FC),Escherichia coli [36],<=2
same,MIC,Enterococcus faecalis,64 µg/mL
same,Activity,Cell membrane [37],Active
same,Activity,Cell membrane [38],Active
CC[C@H](C)[C@@H]1NC(=O)[C@H](CCN)NC(=O)C[C@@H](C(C)C)OC(=O)[C@H]([C@@H](C)O)NC(=O)[C@H](CC(C)C)NC(=O)[C@@H](C(C)C)NC(=O)[C@H](CCN)NC(=O)[C@H](CC(C)C)NC(=O)[C@@H](Cc2ccccc2)NC(=O)[C@H](CCN)NC1=O,fold change (FC),Staphylococcus aureus [1],<=2
same,MIC,Pseudomonas aeruginosa,8 µg/mL
same,inhibition,Staphylococcus aureus [2],Active
same,Activity,Cell membrane [3],Active
same,fold change (FC),Staphylococcus aureus [4],<=2
same,Activity,Staphylococcus aureus [5],Active
same,Activity,Cell membrane [6],inactive
same,Activity,Staphylococcus aureus [7],Active
same,MIC,Staphylococcus aureus [8],8 µg/mL
same,Activity,Escherichia coli [9],Tde
same,Activity,Staphylococcus aureus [10],Active
same,inhibition,Escherichia coli [11],Active
same,MIC,Bacillus subtilis,4 µg/mL
same,inhibition,Escherichia coli [12],Dose-Dependent Effect
same,MIC,Escherichia coli [13],8 µg/mL
same,Activity,Staphylococcus aureus [14],Active
same,Activity,Cell membrane [15],Active
same,Activity,Escherichia coli [16],Active
same,Activity,Escherichia coli [17],inactive
same,inhibition,Escherichia coli [18],Active
same,Activity,Escherichia coli [19],Active
same,fold change (FC),Staphylococcus aureus [20],<=2
same,Activity,Escherichia coli [21],Active
same,inhibition,Staphylococcus aureus [22],Active
same,fold change (FC),Escherichia coli [23],64
same,inhibition,Escherichia coli [24],inactive
same,Activity,Staphylococcus aureus [25],inactive
same,fold change (FC),Staphylococcus aureus [26],<=2
same,Activity,Staphylococcus aureus [27],Dose-Dependent Effect
same,Activity,Staphylococcus aureus [28],Active
same,Activity,Staphylococcus aureus [29],Tde
same,Activity,Escherichia coli [30],Active
same,Activity,Escherichia coli [31],Active
same,fold change (FC),Escherichia coli [32],<=2
same,fold change (FC),Escherichia coli [33],<=2
same,Activity,Cell membrane [34],Active
same,Activity,Escherichia coli [35],Active
same,fold change (FC),Escherichia coli [36],<=2
same,MIC,Enterococcus faecalis,16 µg/mL
same,Activity,Cell membrane [37],Active
same,Activity,Cell membrane [38],Active
